Converted amounts (≈) assume the structure as drawn.
Key:
[1] = test system: Human immunodeficiency virus 1; assay: Antiviral activity against wild type HIV1 infected in human MT4 cells; assay type: functional, organism-based; settings: Human immunodeficiency virus 1, MT4
[2] = target: Sodium-dependent serotonin transporter (Homo sapiens, UniProt P31645); assay: Inhibition of 5HT transporter (unknown origin)
[3] = test system: Plasmodium falciparum; assay: Antiplasmodial activity against chloroquine-resistant Plasmodium falciparum Dd2; assay type: functional, organism-based
[4] = Inhibition of TNFalpha-induced NFkappaB activation in HEK293 cells preincubated for 6 hrs followed by TNFalpha addition by luciferase reporter gene assay; assay type: cell-based; settings: Homo sapiens
[5] = test system: RAW264.7; assay: Inhibition of LPS-induced nitric oxide production in mouse RAW264.7 cells preincubated for 15 mins followed by LPS stimulation measured after 20 hrs by griess assay; assay type: functional, cell-based
[6] = test system: Human immunodeficiency virus 1; assay: Antiviral activity against wild type HIV1 3B infected in human MT2 cells after 3 days by BrightGlo luciferase reporter gene assay; assay type: functional, organism-based; settings: Human immunodeficiency virus 1, 3B, MT2, 72 h
[7] = test system: Human immunodeficiency virus 1; assay: Antiviral activity against HIV1 infected in human MT4 cells; assay type: functional, organism-based; settings: Human immunodeficiency virus 1, MT4
[8] = test system: Mycobacterium tuberculosis; assay: Antimycobacterial activity against Mycobacterium tuberculosis; assay type: functional
[9] = test system: Mycobacterium tuberculosis; assay: Antimycobacterial activity against drug-sensitive Mycobacterium tuberculosis; assay type: functional
[10] = target: T1, Dihydrofolate reductase (Homo sapiens, UniProt P00374); assay: Inhibition of human DHFR
T1 sequence (P00374 whole entry): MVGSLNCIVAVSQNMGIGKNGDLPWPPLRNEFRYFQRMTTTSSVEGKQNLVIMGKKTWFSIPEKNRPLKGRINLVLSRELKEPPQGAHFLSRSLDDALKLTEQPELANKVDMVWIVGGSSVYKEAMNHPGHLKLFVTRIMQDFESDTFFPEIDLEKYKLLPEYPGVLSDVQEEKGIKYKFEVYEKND

[11] = target: T2, Dihydrofolate reductase (Mycobacterium tuberculosis, UniProt P9WNX1); assay: Inhibition of Mycobacterium tuberculosis H37Rv DHFR
T2 sequence (P9WNX1 whole entry): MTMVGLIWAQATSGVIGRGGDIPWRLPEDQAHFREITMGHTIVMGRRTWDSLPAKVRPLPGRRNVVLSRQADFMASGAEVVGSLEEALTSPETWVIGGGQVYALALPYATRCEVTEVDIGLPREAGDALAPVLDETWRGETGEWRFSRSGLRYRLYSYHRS

[12] = target: T3, Prostaglandin G/H synthase 2 (Homo sapiens, UniProt P35354); assay: Inhibition of recombinant human COX2 assessed as decrease in PGE2 release after 10 mins by EIA
T3 sequence (P35354 whole entry): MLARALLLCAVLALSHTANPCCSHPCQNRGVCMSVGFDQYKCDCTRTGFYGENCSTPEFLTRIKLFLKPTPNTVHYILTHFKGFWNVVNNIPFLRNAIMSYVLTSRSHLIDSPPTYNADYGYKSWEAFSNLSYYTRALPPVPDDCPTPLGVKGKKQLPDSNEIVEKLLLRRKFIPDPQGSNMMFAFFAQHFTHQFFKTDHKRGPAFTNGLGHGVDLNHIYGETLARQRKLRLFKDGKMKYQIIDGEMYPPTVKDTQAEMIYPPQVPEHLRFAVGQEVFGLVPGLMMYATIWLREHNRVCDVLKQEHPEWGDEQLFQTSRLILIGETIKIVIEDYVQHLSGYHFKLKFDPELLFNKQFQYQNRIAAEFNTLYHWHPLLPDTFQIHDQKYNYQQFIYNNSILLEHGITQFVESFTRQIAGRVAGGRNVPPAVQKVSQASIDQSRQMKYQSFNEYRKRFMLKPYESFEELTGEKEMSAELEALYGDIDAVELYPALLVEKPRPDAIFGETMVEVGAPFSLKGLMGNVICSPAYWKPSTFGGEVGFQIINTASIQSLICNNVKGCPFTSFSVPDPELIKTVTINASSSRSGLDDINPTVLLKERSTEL

[13] = test system: RAW264.7; assay: Inhibition of nitric oxide production in mouse RAW264.7 cells by griess assay; assay type: functional, cell-based
[14] = test system: Mus musculus; assay: Antidiabetic activity in db/db mouse assessed as reduction in serum glucose level at 10 to 30 mg/kg, po after 1 week relative to control; assay type: functional; set-up: scale not given: the % may be the effect or the level left
[15] = test system: Human immunodeficiency virus 1; assay: Antiviral activity against HIV1 infected in human C8166 cells; assay type: functional, organism-based; settings: Human immunodeficiency virus 1, C8166

Sodium-dependent serotonin transporter, sequence (P31645 whole entry): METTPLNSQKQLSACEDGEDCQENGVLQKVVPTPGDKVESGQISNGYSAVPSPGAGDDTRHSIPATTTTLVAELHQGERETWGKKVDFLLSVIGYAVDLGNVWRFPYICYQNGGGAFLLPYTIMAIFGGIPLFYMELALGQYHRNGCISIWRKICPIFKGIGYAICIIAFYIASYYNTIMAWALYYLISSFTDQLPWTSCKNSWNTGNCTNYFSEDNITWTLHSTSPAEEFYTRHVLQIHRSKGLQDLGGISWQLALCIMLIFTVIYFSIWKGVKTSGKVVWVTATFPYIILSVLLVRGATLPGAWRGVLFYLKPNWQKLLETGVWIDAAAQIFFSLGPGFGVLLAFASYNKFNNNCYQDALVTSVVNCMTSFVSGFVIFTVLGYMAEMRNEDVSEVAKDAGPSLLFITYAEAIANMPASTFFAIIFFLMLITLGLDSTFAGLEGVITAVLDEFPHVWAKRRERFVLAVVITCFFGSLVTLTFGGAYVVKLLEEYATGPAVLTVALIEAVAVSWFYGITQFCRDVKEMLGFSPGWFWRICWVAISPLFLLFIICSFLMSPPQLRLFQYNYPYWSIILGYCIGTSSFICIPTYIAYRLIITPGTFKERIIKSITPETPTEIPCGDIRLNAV

## COP(=O)(c1cc(C)cc(/C=C/C#N)c1)c1c(C(N)=O)[nH]c2ccc(Cl)cc12 (stereo not drawn)
[1]
  IC50: 0.08 nM

## Fc1cc2c(c(OCCNCCc3c[nH]c4ccc(F)cc34)c1)OCCC2
[2]
  Ki: 5 nM

## CC1=C[C@@H]2c3c(CCN(C)C)c4ccccc4n3[C@@H](c3[nH]c4ccccc4c3CCN(C)C)[C@@H]2C(C)(C)C1
[3]
  IC50: 80 nM

## O/N=C/c1c(-c2ccccc2)[nH]c2ccccc12
[4]
  IC50: 6900 nM
[5]
  IC50: 4400 nM

## CCOC(=O)Nc1[nH]c2ccc(Br)cc2c1C(C)(O)C(F)(F)F (stereo not drawn)
[6]
  IC50: 3 nM

## Cc1cc(C)nc(NS(=O)(=O)c2ccc(/N=C3\C(=O)Nc4ccccc43)cc2)n1
[7]
  EC50: 8 µg/mL

## N#Cc1ccc(C2SCC(=O)N2NC(=O)c2[nH]c3ccc(F)cc3c2-c2ccccc2)cc1 (stereo not drawn)
[8]
  MIC99: 6.25 µg/mL (≈ 13.7 µM)

## CNCCc1c(/C=C/[C@@]2(C)C[C@H](C=C(C)C)c3c(CCNC)c4ccccc4n32)[nH]c2ccccc12
[3]
  IC50: 80 to 1420 nM

## CNCCc1c([C@H]2[C@H]3[C@H](C=C(C)CC3(C)C)c3c(CCNC)c4ccccc4n32)[nH]c2ccccc12
[3]
  IC50: 80 to 1420 nM

## C[C@@H]1[C@H]2C[C@@H](C[C@H]1NC(=O)c1cc3c(F)cc(F)cc3[nH]1)C2(C)C
[9]
  MIC: 0.012 µM (≈ 3.99 ng/mL)

## CC(C)=C[C@H]1C[C@](C)(/C=C/c2[nH]c3ccccc3c2CCN(C)C)n2c1c(CCN(C)C)c1ccccc12
[3]
  IC50: 80 to 1420 nM

## CCCCC(O)(c1c(NC(=O)OCC)[nH]c2ccc(Br)cc12)C(F)(F)F (stereo not drawn)
[6]
  IC50: 3 nM

## CC(=O)c1c(C)n(Cc2ccccc2)c2ccc(OCCCC(=O)O)cc12
[10]
  IC50: 980000 nM
[11]
  IC50: 150000 nM

## COc1ccc2cc(-c3cc4ccccc4[nH]3)ccc2c1
[4]
  IC50: 600 nM

## CC(=O)N1C(=O)/C(=N\c2ccc(S(=O)(=O)Nc3nc(C)cc(C)n3)cc2)c2ccccc21
[7]
  EC50: 8000 nM

## CC(C)=C[C@H]1C[C@@](C)(/C=C/c2[nH]c3ccccc3c2CCN(C)C)n2c1c(CCN(C)C)c1ccccc12
[3]
  IC50: 80 to 1420 nM

## C#CCc1cn(C)c2c(O)cccc12
[12]
  IC50: 6220 nM
[13]
  IC50: 39800 nM

## O=C(NN1C(=O)CSC1c1ccc([N+](=O)[O-])cc1)c1[nH]c2ccc(F)cc2c1-c1ccccc1 (stereo not drawn)
[8]
  MIC99: 6.25 µg/mL (≈ 13.1 µM)

## N#Cc1c(-c2ccccc2)[nH]c2ccccc12
[4]
  IC50: 8500 nM
[5]
  IC50: 4800 nM

## Cc1c(CC(=O)O)c2cc(O)ccc2n1C(=O)c1ccc(Cl)cc1
[14]
  Activity: 44.3%

## C[C@@H]1CC[C@H]2[C@@H](C)C(=O)O[C@@H]3O[C@@]4(C)CC[C@@H]1[C@]32OO4 [ARTEMISININ]
[3]
  IC50: 80 to 1420 nM

## CO[C@H]1/C=C/O[C@@]2(C)Oc3c(C)c(O)c4c(O)c(c(/C=N/N5CCN(C)CC5)c(O)c4c3C2=O)NC(=O)/C(C)=C\C=C\[C@H](C)[C@H](O)[C@@H](C)[C@@H](O)[C@@H](C)[C@H](OC(C)=O)[C@@H]1C [RIFAMPIN]
[8]
  MIC99: 0.25 µg/mL (≈ 0.304 µM)

## CN(CCOc1ccc(CC2SC(=O)NC2=O)cc1)c1ccccn1 (stereo not drawn) [ROSIGLITAZONE]
[14]
  Activity: 66%

## Cc1cn([C@H]2C[C@H](N=[N+]=[N-])[C@@H](CO)O2)c(=O)[nH]c1=O [ZIDOVUDINE]
[15]
  EC50: 1100 nM

From ChEMBL document CHEMBL4364320, “An insight into the medicinal perspective of synthetic analogs of indole: A review” (Eur J Med Chem, 2019)
